Laboratory results published in PMC9801504, “Stable Isotopomers of myo-Inositol Uncover a Complex MINPP1-Dependent Inositol Phosphate Network” (ACS Central Science, 2022).

Molecular target: T1, MINPP1 (Homo sapiens, UniProt Q9UNW1)
T1 construct: recombinant, expressed in and purified from E. coli; borders and tags only in the supplement
T1 sequence (Q9UNW1 31-487): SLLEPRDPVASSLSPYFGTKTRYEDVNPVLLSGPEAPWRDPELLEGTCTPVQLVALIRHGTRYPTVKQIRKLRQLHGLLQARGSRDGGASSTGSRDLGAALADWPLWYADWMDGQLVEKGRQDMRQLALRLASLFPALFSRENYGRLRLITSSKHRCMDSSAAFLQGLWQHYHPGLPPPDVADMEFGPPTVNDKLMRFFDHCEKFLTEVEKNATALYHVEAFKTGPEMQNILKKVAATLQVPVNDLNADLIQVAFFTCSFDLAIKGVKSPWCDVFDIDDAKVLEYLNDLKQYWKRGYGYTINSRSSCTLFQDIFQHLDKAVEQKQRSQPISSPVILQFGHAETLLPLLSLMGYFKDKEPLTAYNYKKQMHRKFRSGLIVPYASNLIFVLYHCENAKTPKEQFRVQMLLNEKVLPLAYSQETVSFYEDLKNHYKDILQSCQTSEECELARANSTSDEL
Test: 2D NMR of dephosphorylation of [[…]6]InsP5[2OH]
Format: biochemical
Conditions: read-out: apparent IC50

- IC50: 2000 nM
SMILES: O=P(O)(O)O[C@H]1[C@H](OP(=O)(O)O)[C@@H](OP(=O)(O)O)[C@H](OP(=O)(O)O)[C@@H](OP(=O)(O)O)[C@H]1OP(=O)(O)O [InsP6]
